Entries after “also recorded” stand apart in the source; their conditions may differ.
Experiments:
[1] = Stability tests in aqueous solution (delphinidin content by HPLC); type: physicochemical; conditions: 0.9% NaCl solution, 37° C., dark, start 1.584 mg/ml (complex) or 0.0216 mg/ml (uncomplexed)
Method: The delphinidin chloride content of the delphinidin-containing solutions was determined using a reversed-phase HPLC technique similar to that already described above. The following reagents were employed here:
The solutions were prepared at room temperature and then stored in closed vials in the dark at 37° C.
The delphinidin content was determined after 1, 2, 3, and 4 h. The table below reports the content found, as a percentage of the abovementioned starting concentration.

[2] = tested on: Staphylococcus aureus MRSA2318, MRSA2855, MSSA1155; assay: Bacterial growth, static model (visual evaluation, vitality test); type: cell-based; conditions: S. aureus (both MSSA and MRSA); RPMI-1640, 37° C., 48 hours
From the text: (§1) Staphylococcus aureus MRSA2318 biofilm-positive clinical isolate from tracheal secretion of 22.04.2009 (Würzburg University Hospital, neurosurgical clinic and polyclinic I, intensive therapy unit); • Staphylococcus aureus MRSA2855 biofilm-positive clinical isolate from blood culture of 22.04.2009 (Würzburg University Hospital, medical clinic and polyclinic I, ITU); • Staphylococcus aureus MSSA1155 biofilm-positive clinical isolate from 27.04.2004 from abdominal cavity scrape (Würzburg University clinic, urology, unit B).
(§2) Investigating the effect of delphinidin on the bacterial growth and the bacterial formation of biofilm took place by means of • a) visual evaluation of bacterial growth (static model), • b) vitality test (scrape on blood agar plates) • c) analysis of the biofilm in a static model by means of the crystal violet assay as described above in section 1.
(§3) The control used was sterile RPMI-1640. Then delphinidin in solution in RPMI-1640 was added, from a dilution series produced beforehand, and the cell culture dish was incubated at 37° C. for 48 hours, the visual outcome thereof being shown in FIG. 2. The color change from (phenol) red to yellow correlates with the extent of the bacterial growth.
Scrapes of the bacteria from the culture dish are shown in FIG. 3 (P. aeruginosa ATCC9027), 4 (K. pneumoniae ATCC700603), 5 (MRSA2318), 6 (MRSA2855) and 7 (MSSA1155). […]

[3] = tested on: Klebsiella pneumoniae ATCC700603; assay: Biofilm formation, static model, crystal violet assay; type: cell-based; conditions: K. pneumoniae, RPMI-1640, 37° C., 48 hours
Method: (§4) Klebsiella pneumoniae ATCC700603 biofilm-positive clinical isolate from urine from an ESBL+(Extended Spectrum Beta-Lactamase) hospital patient (reference strain);
The growth and the analysis of the biofilm were determined in a static model by means of the crystal violet assay according to basic protocol 1 in Current Protocols in Microbiology 1B.1.2-1B.1.4 “MICROTITER PLATE BIOFILM ASSAY” [published online August 2011 in Wiley Online Library (wileyonlinelibrary.com) DOI: 10.1002/9780471729259. mc01b01s22]. […]
(§5) With the same experimental setup, the biofilm was analyzed by means of the crystal violet test as described above in section 1, the outcome thereof, after 48 hours of incubation and the crystal violet test, is shown overall in FIG. 8, and in FIGS. 9-13 in each case after measurement of the optical density, processed graphically for the respective delphinidin concentrations in the case of the individual bacterial strains (FIG. 9: P. aeruginosa ATCC9027, FIG. 10: K. pneumoniae ATCC700603, FIG. 11: MRSA2318, FIG. 12: MRSA2855, FIG. 13: MSSA1155).

[4] = tested on: Staphylococcus aureus MRSA2318, MRSA2855, MSSA1155; assay: as above; type: cell-based; conditions: S. aureus (both MSSA and MRSA), RPMI-1640, 37° C., 48 hours
From the text: as §1
(§6) The growth and the analysis of the biofilm were determined in a static model by means of the crystal violet assay according to basic protocol 1 in Current Protocols in Microbiology 1B.1.2-1B.1.4 “MICROTITER PLATE BIOFILM ASSAY” [published online August 2011 in Wiley Online Library (wileyonlinelibrary.com) DOI: 10.1002/9780471729259. mc01b01s22].
as §2
The control used was sterile RPMI-1640. […]

[5] = tested on: Klebsiella pneumoniae ATCC700603; assay: Bacterial growth, static model (visual evaluation, vitality test); type: cell-based; conditions: K. pneumoniae; RPMI-1640, 37° C., 48 hours
From the text: as §4, §2, §3
(§7) Scrapes of the bacteria from the culture dish are shown in FIG. 3 (P. aeruginosa ATCC9027), 4 (K. pneumoniae ATCC700603), 5 (MRSA2318), 6 (MRSA2855) and 7 (MSSA1155). “ST 26.1.11” and “ST 28.1.11” in the case of the scrapes on the agar plates refers to the respective scraping date of the duplicated experiments.

[6] = tested on: Pseudomonas aeruginosa ATCC9027; assay: Biofilm formation, static model, crystal violet assay; type: cell-based; conditions: P. aeruginosa, RPMI-1640, 37° C., 48 hours
Method: (§8) The strains selected were as follows: • Pseudomonas aeruginosa ATCC9027, biofilm-positive clinical isolate from an outer ear infection (reference strain);
as §6
as §2, with “1. […]” for “1.”
as §5

[7] = tested on: Pseudomonas aeruginosa ATCC9027; assay: Bacterial growth, static model (visual evaluation, vitality test); type: cell-based; conditions: P. aeruginosa; RPMI-1640, 37° C., 48 hours
From the text: as §8, §2, §3, §7

[8] = Solubility of delphinidin chloride in aqueous cyclodextrin solutions; type: physicochemical; conditions: pure water, cyclodextrin concentration 0; excess delphinidin chloride, 30° C., 20 h, dark, 0.22 μm filter
Method: In this example, the complexing of delphinidin by different cyclodextrins and the solubility of the complex in aqueous solution are investigated.
Neutral aqueous solutions were prepared, containing 10 wt % of the respective cyclodextrin.
5 ml each of the aqueous cyclodextrin solutions and of pure water were introduced into glass flasks. Then an excess of delphinidin chloride was added.
The suspensions were stirred in the dark at 30° C. for 20 h. This was followed by filtration through a membrane filter with a 0.22 μm pore size.

| SMILES | Delphinidin content as a percentage of the starting concentration ([1]; 0 h) [%] | Delphinidin content as a percentage of the starting concentration ([1]; 1 h) [%] | Delphinidin content as a percentage of the starting concentration ([1]; 2 h) [%] | Delphinidin content as a percentage of the starting concentration ([1]; 3 h) [%] | Delphinidin content as a percentage of the starting concentration ([1]; 4 h) [%] | Effect on growth [2] | Effect on formation of biofilm [3] | Effect on formation of biofilm [4] | Effect on growth [5] | Effect on formation of biofilm [6] | Effect on growth [7] | Delphinidin chloride (solubility achievable) [8] [µg/mL] |
| --- | --- | --- | --- | --- | --- | --- | --- | --- | --- | --- | --- | --- |
| Oc1cc(O)c2cc(O)c(-c3cc(O)c(O)c(O)c3)[o+]c2c1 [Delphinidin] | 100 | 8.3 | 6.5 | 5.6 | 5.1 | inhibiting effect | no inhibiting effect; also recorded: appears still to be being stimulated | inhibiting effect | no inhibiting effect | no inhibiting effect | no inhibiting effect | – |
| Oc1cc(O)c2cc(O)c(-c3cc(O)c(O)c(O)c3)[o+]c2c1.[Cl-] [Delphinidin chloride, delphinidin chloride] | – | – | – | – | – | – | – | – | – | – | – | 70 |

Source: patent publication US20150051273A1, “USE OF DELPHINIDIN AGAINST STAPHYLOCOCCUS AUREUS” (Sapiotec GmbH, priority 2012, published 2015)
